Experiments:
[1] = test system: aggrecan (CS56); experiment: CSPG degradation by OPC conditioned media (CS56 spot quantification and western blot of aggrecan); assay type: cell-based, mouse; conditions: for aggrecan GAG digestion (CS56 immunoblot): Exo1 10 μg/mL, GM6001 25 μM or OA-Hy 100 nM with 2.5 μM ISP
Experimental: (§1) CSPG gradients were prepared as described previously (Tom, V. J., et al. Studies on the Development and Behavior of the Dystrophic Growth Cone, the Hallmark of Regeneration Failure, in an In vitro Model of the Glial Scar and after Spinal Cord Injury.). 24-well glass coverslip were coated with poly-L-lysine and nitrocellulose, and a mixture of 700 μg/mL aggrecan (A1960 Sigma) and 10 μg/mL laminin (11243217001 Sigma) spotted on the coated coverslip. After drying, coated coverslips were then incubated with laminin at 37° C. for 3h. Purified OPCs were plated at a density of 10,000/coverslip and cultured in DMEM/F12 medium containing with N2, PDGF (20 ng/ml), FGF (20 ng/ml), NT-3 (5 ng/ml), CNTF (O1 ng/ml), Glutamine (200 mM). Coverslips were stained with CS-56 (C8035, Sigma, 1:500) and O4 antibodies (Hybridoma Core Cleveland Clinic, 1:10). O4-positive cells crossing the aggrecan border were counted for each spot. For CSPG gradient quantification, 1×10^6 OPCs were plated per well on PLL, 1 μg/mL laminin, and 2 μg/mL aggrecan coated 6-well plates. OPCs treated with vehicle, 2.5 μM ISP, or 2.5 μM SISP for 2 days at 37° C. CM was harvested and incubated with freshly made spots. Spots were incubated with CM for 2 days at 37° C. then stained with CS-56 and laminin (L9393, Sigma, 1:1000) antibodies and consistently imaged. Using ImageJ software (NIH), pixel intensities of the CS-56 or laminin spot rims were quantified using the same ROI. For cultured spinal cord explant, the spinal cords of cervical and thoracic of P1 mouse pups were chopped into 1-2 mm tissue pieces and transferred to the coverslip. Explants were cultured in DMEM/F12 medium with 15% FBS (Hyclone), O1 ng/ml PDGF (Sigma) and N2 supplement (Invitrogen). For ISP treatment, 2.5 uM ISP was added to the media at the time of plating. 25 μM GM6001 (2983, Tocris), 100 nM MMP-2 inhibitor (444244, Calbiochem), and/or 2.5 μM ISP or SISP was used.
CM was harvested from 1×10^6 OPCs incubated on PLL, 1 μg/mL laminin, and 2 μg/mL aggrecan coated 6-well plates. OPCs were treated with vehicle, 2.5 μM ISP, or 2.5 μM SISP in conjunction with 10 μg/mL Exo1 (ab120292, Abcam), or 25 μM GM6001 (364205, Calbiochem) for 2 days at 37° C. […] CM of each cell-strained group was incubated with 20 μg/mL aggrecan and/or 10 μg/mL laminin for 2 hours in lmL Eppendorf tubes at 37° C. As a positive control, OPC media was incubated with aggrecan and incubated in the same fashion. Western blots were then performed as described below with incubation against CS-56 and/or laminin antibodies.

[2] = test system: organotypic cerebellar slice cultures; experiment: LPC-induced demyelination in mouse cerebellar slice cultures; assay type: cell-based; conditions: 25 μM GM6001 or 100 nM OA-Hy in conjunction with 2.5 μM ISP, 9 days
Source text: We carried out the cerebellar slice culture method as described previously (Zhang, H., et al. Central nervous system remyelination in culture—A tool for multiple sclerosis research. Experimental Neurology 230, 138-148 (2011)). Briefly, 300 μm-thick cerebellar slices were cut from P10-12 mouse cerebellum using a Leica vibrating microtome (Leica, VT1000S) and cultured in medium containing 50% basal medium eagle medium, 25% Heat-inactivated horse serum, 25% Hank's solution, 2.5% glucose, 1% glutamine and penicillin-streptomycin. After 4 days in vitro (DIV), 0.5 mg/ml LPC were added for 17-18h to induce demyelination. Slices were then incubated with 2.5 μM ISP for 8 days. For GM6001 experiments, 25 μM GM6001 (Tocris) and/or 2.5 μM ISP or SISP was incubated for 9 days. Remyelination was examined by semi-quantitative Western blot of MBP and immunofluorescence stain of MBP and NeuF200.
Slices were fixed with 4% PFA, delipidated, and washed three times in PBS, blocked in PBS containing 0.1% Triton X-100 and 5% normal goat serum and incubated with anti-MBP (SMI-99P, Covance, 1:300), and anti-NeuF200 (N4142, Sigma, 1:250) antibodies overnight at 4° C. The slices were then washed in PBS and incubated in Alexa Fluor-conjugated secondary antibodies (1:500, invitrogen) for 2h. Slices were mounted in Vectashield mounting medium with DAPI (Vector Laboratories) and analyzed using Leica DFC500 fluorescence microscope.

[3] = test system: oligodendrocyte progenitor cells (OPCs); experiment: CSPG gradient crossing (spot) assay, OPC migration; assay type: cell-based, mouse; conditions: 25 μM GM6001 or 100 nM OA-Hy, even in the presence of ISP
Experimental: as §1

[4] = test system: oligodendrocyte progenitor cells (OPCs); experiment: Ki-67 proliferation and TUNEL apoptosis of OPCs on aggrecan/laminin; assay type: cell-based, mouse; conditions: 2.5 μM peptide, 2 div, laminin 1 and aggrecan 2 μg/mL, vs control
Experimental: To assess proliferation, OPCs were plated on 24-well coverslips that were precoated with PLL, 1 μg/mL laminin, and 2 μg/mL aggrecan. OPCs were treated with vehicle, 2.5 μM ISP or SISP immediately upon plating for 2 days at 37° C. Coverslips were fixed and stained using the same method described in the immunocytochemistry section with Ki-67 (550609, BD Pharmingen, 1:500) and O4 (1:10). Coverslips were imaged and counted. To assess apoptosis, OPCs were cultured in the same fashion and incubated with vehicle or 1 μg/mL LPC for 2 hours at 2 days following vehicle, 2.5 μM ISP or SISP incubation. Coverslips were then fixed with PFA and methanol then stained using APO-BrdU TUNEL assay kit (A23210, ThermoFisher) and guidelines with an O/N incubation of the primary antibody at RT. Coverslips were additionally costained with DAPI (D9542, Sigma, 1:10,000) then imaged and counted.

[5] = test system: MMP-10; experiment: MMP-10 western blot of OPC conditioned media; assay type: cell-based, mouse; conditions: OPC CM, 2.5 μM peptide, same as vehicle
Experimental: To assess MMP-2 or 10 in OPC CM or lysates, OPCs were incubated on precoated PLL, aggrecan, and laminin as described above. OPCs were treated with vehicle, 2.5 μM ISP or SISP for 2 days at 37° C. CM was then harvested and concentrated using Milipore Ultracel YM-C centrifugal filter units at max speed (Eppendorf Centrifuge […]) for 30 minutes at 4° C. […] of concentrated CM was loaded into each lane. OPC lysates were assessed using western blot techniques described below with […] protein loaded from each group. Tissue samples or cerebellar slices or purified OPC cells were homogenized with RIPA lysis buffer and protein concentration was determined by Pierce BCA protein assay kit according to the manufacture instruction (Thermo Fisher). Then, equal amounts of protein were loaded to 15% SDS-PAGE gels, and electrophoretically transferred to PVDF membranes (Millipore). The membranes were blocked in 0.1% TPBS buffer with 5% non-fat milk for 1h at room temperature and probed with indicated primary antibodies overnight at 4° C. and followed by secondary antibody conjugated to horseradish peroxidase (HRP). […] Enhanced chemiluminescence was performed with a West Pico Kit (Thermo Fisher) and detected by FluorChem E system (ProteinSimple, USA). The density of bands was quantified using ImageJ software (NIH).

Compound	aggrecan GAG digestion (CS56 immunoblot) [1]	colocalization of MBP and neurofilament+ axons [2]	CS56 spot degradation ([1]; 25 μM GM6001 or 100 nM OA-Hy with 2.5 μM ISP)	OPC entry into the CSPG-rich area [3]	OPC proliferation (Ki67) [4]	MMP-10 secretion, western blot [5]
COC(=O)c1ccccc1NC(=O)c1ccc(F)cc1 [Exo1]	partially rescued aggrecan GAG digestion	–	–	–	–	–
CNC(=O)[C@H](Cc1c[nH]c2ccccc12)NC(=O)[C@@H](CC(=O)NO)CC(C)C [GM6001]	partially rescued	decreased	additionally rescued CS56 spot degradation	effectively halted OPC entry	–	–
GRKKRRQRRRCIREDDSLMLYALAQEKKESNMHES [SISP, scrambled ISP control peptide, reference compound]	–	–	–	–	not significantly changed	equally low amounts
